Assay results taken from the NIST ThermoML archive (doi:10.1016/j.fluid.2008.04.003).

Test: wn = mass fraction of the nth substance listed
Conditions: 101 kPa, Liquid; for viscosity: Capillary tube (Ostwald / Ubbelohde) method

NC(CO)(CO)CO [2-amino-2-(hydroxymethyl)-1,3-propanediol] + O
Conditions | mass density, 283.15 K [kg/m3] | mass density, 288.15 K [kg/m3] | mass density, 293.15 K [kg/m3] | mass density, 298.15 K [kg/m3] | mass density, 303.15 K [kg/m3] | mass density, 308.15 K [kg/m3] | mass density, 313.15 K [kg/m3] | viscosity, 283.15 K [mPa·s] | viscosity, 298.15 K [mPa·s] | viscosity, 313.15 K [mPa·s]
w1 = 0.0015 | 1000.5 | 999.9 | 999.1 | 997.9 | 996.6 | 995 | 993.1 | 1.315 | 0.905 | 0.656
w1 = 0.005 | 1001.6 | 1001.3 | 1000.5 | 999.4 | 997.8 | 996 | 993.6 | 1.354 | 0.913 | 0.662
w1 = 0.01 | 1002.4 | 1001.8 | 1001 | 1000 | 998.7 | 997.2 | 995.4 | 1.36 | 0.917 | 0.669
w1 = 0.025 | 1006.8 | 1006 | 1005.1 | 1003.8 | 1002.3 | 1000.7 | 998.7 | 1.422 | 0.959 | 0.696
w1 = 0.1 | 1026.2 | 1025 | 1023.8 | 1022.4 | 1020.8 | 1019.4 | 1017.7 | 1.802 | 1.173 | 0.857
